Data: ChEMBL document CHEMBL4392844 (Bioorg Med Chem, 2019)
Active and inactive are the calls of the source. No cut-off for these calls is given here.

Assays:
A549 = assay: Cytotoxicity against human A549 cells assessed as reduction in cell proliferation measured after 72 hrs by MTT assay; format: functional, cell-based; conditions: A549, 72 h
HT-29 [1] = assay: Cytotoxicity against human HT-29 cells assessed as reduction in cell proliferation measured after 72 hrs by MTT assay; format: functional, cell-based; conditions: HT-29, 72 h
HT-29 [2] = assay: Antiproliferative activity against human HT-29 cells assessed as increase in dead cell population by IncuCyte live-cell imaging analysis; format: functional, cell-based
[3] = molecular target: T1, Receptor-type tyrosine-protein kinase FLT3 (Homo sapiens, UniProt P36888); assay: Inhibition of FLT3 (unknown origin) using FAM-labelled peptide as substrate measured after 10 mins by mobility shift assay
T1 sequence (P36888 whole entry): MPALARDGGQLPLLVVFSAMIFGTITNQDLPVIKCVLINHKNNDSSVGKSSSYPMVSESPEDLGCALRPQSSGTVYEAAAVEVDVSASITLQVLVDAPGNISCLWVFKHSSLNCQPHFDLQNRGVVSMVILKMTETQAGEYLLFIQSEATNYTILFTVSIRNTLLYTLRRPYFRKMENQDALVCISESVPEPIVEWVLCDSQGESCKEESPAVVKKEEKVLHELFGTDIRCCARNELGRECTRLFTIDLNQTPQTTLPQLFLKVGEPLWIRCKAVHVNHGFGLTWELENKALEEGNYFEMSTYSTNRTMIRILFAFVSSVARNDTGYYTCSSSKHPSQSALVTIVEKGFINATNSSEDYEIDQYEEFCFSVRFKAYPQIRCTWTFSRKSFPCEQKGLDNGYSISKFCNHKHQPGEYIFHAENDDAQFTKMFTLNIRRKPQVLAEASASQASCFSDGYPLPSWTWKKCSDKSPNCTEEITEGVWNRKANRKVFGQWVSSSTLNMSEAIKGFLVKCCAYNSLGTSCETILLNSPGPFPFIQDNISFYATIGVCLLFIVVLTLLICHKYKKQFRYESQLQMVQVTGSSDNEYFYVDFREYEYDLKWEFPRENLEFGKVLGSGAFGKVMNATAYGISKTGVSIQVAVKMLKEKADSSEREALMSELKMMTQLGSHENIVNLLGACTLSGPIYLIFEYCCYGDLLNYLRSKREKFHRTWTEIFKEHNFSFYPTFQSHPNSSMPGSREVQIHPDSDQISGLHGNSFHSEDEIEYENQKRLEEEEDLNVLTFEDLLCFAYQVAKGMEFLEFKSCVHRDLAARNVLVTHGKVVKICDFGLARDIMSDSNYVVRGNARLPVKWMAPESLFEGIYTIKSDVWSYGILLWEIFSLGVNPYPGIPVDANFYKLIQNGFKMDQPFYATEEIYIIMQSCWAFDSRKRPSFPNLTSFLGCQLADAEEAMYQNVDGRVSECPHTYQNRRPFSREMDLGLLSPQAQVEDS

HT-29 [4] = assay: Antiproliferative activity against human HT-29 cells assessed as increase in dead cell population at 10 ug/ml measured after 14 hrs by IncuCyte live-cell imaging analysis; format: functional, cell-based
HT-29 [5] = assay: Induction of apoptosis in human HT-29 cells measured after 72 hrs by Annexin V-FITC/propidium iodide staining based FACS analysis; format: functional, cell-based
HT-29 [6] = assay: Antimigratory activity against human HT-29 cells assessed as reduction in cell migration at 3.33 ug/ml measured every hour for 48 hrs by IncuCyte real-time cell imaging analysis; format: functional, cell-based
[7] = molecular target: Vascular endothelial growth factor receptor 2 (Homo sapiens, UniProt P35968); assay: Inhibition of VEGFR2 (unknown origin) using FAM-labelled peptide as substrate measured after 10 mins by mobility shift assay
HT-29 [8] = assay: Antiproliferative activity against human HT-29 cells assessed as increase in dead cell population at 1.11 ug/ml measured after 66 hrs by IncuCyte live-cell imaging analysis; format: functional, cell-based
HT-29 [9] = assay: Antiproliferative activity against human HT-29 cells assessed as reduction in cell proliferation at 10 ug/ml after 72 hrs by phase contrast microscopy; format: functional, cell-based
HT-29 [10] = assay: Ratio of test compound effect to cabozantinib effect for antiproliferative activity against human HT-29 cells assessed as increase in dead cell population measured after 14 hrs by IncuCyte live-cell imaging analysis; format: functional
[11] = molecular target: Insulin-like growth factor 1 receptor (Homo sapiens, UniProt P08069); assay: Inhibition of IGF1R (unknown origin) using FAM-labelled peptide as substrate measured after 10 mins by mobility shift assay
HT-29 [12] = assay: Induction of apoptosis in human HT-29 cells assessed as early apoptotic cells at 0.3 ug/ml measured after 24 hrs by Annexin V-FITC/propidium iodide staining based FACS analysis (reference value: 4.9%); format: functional
HT-29 [13] = assay: Induction of apoptosis in human HT-29 cells assessed as early apoptotic cells at 5 ug/ml measured after 24 hrs by Annexin V-FITC/propidium iodide staining based FACS analysis (reference value: 4.9%); format: functional
[14] = molecular target: Epidermal growth factor receptor (Homo sapiens, UniProt P00533); assay: Inhibition of EGFR (unknown origin) using FAM-labelled peptide as substrate measured after 10 mins by mobility shift assay
HT-29 [15] = assay: Induction of apoptosis in human HT-29 cells assessed as early apoptotic cells at 1 ug/ml measured after 24 hrs by Annexin V-FITC/propidium iodide staining based FACS analysis (reference value: 4.9%); format: functional
HT-29 [16] = assay: Antimigratory activity against human HT-29 cells assessed as reduction in cell migration at 3.33 ug/ml measured every hour for 72 hrs by IncuCyte real-time cell imaging analysis; format: functional, cell-based
HT-29 [17] = assay: Induction of apoptosis in human HT-29 cells assessed as early apoptotic cells at 3 ug/ml measured after 24 hrs by Annexin V-FITC/propidium iodide staining based FACS analysis (reference value: 4.9%); format: functional
HT-29 [18] = assay: Antiproliferative activity against human HT-29 cells assessed as reduction in cell proliferation by phase contrast microscopy; format: functional, cell-based
[19] = molecular target: Mast/stem cell growth factor receptor Kit (Homo sapiens, UniProt P10721); assay: Inhibition of c-KIT (unknown origin) using FAM-labelled peptide as substrate measured after 10 mins by mobility shift assay
[20] = molecular target: Proto-oncogene tyrosine-protein kinase Src (Homo sapiens, UniProt P12931); assay: Inhibition of c-SRC (unknown origin) using FAM-labelled peptide as substrate measured after 10 mins by mobility shift assay
HT-29 [21] = assay: Antiproliferative activity against human HT-29 cells assessed as reduction in cell proliferation by IncuCyte live-cell imaging analysis; format: functional, cell-based
HT-29 [22] = assay: Antiproliferative activity against human HT-29 cells assessed as increase in dead cell population at 10 ug/ml measured after 66 hrs by IncuCyte live-cell imaging analysis; format: functional, cell-based
HT-29 [23] = assay: Antiproliferative activity against human HT-29 cells assessed as reduction in cell proliferation at 0.37 ug/ml after 72 hrs by phase contrast microscopy; format: functional, cell-based

Chain of Vascular endothelial growth factor receptor 2 (P35968 whole entry): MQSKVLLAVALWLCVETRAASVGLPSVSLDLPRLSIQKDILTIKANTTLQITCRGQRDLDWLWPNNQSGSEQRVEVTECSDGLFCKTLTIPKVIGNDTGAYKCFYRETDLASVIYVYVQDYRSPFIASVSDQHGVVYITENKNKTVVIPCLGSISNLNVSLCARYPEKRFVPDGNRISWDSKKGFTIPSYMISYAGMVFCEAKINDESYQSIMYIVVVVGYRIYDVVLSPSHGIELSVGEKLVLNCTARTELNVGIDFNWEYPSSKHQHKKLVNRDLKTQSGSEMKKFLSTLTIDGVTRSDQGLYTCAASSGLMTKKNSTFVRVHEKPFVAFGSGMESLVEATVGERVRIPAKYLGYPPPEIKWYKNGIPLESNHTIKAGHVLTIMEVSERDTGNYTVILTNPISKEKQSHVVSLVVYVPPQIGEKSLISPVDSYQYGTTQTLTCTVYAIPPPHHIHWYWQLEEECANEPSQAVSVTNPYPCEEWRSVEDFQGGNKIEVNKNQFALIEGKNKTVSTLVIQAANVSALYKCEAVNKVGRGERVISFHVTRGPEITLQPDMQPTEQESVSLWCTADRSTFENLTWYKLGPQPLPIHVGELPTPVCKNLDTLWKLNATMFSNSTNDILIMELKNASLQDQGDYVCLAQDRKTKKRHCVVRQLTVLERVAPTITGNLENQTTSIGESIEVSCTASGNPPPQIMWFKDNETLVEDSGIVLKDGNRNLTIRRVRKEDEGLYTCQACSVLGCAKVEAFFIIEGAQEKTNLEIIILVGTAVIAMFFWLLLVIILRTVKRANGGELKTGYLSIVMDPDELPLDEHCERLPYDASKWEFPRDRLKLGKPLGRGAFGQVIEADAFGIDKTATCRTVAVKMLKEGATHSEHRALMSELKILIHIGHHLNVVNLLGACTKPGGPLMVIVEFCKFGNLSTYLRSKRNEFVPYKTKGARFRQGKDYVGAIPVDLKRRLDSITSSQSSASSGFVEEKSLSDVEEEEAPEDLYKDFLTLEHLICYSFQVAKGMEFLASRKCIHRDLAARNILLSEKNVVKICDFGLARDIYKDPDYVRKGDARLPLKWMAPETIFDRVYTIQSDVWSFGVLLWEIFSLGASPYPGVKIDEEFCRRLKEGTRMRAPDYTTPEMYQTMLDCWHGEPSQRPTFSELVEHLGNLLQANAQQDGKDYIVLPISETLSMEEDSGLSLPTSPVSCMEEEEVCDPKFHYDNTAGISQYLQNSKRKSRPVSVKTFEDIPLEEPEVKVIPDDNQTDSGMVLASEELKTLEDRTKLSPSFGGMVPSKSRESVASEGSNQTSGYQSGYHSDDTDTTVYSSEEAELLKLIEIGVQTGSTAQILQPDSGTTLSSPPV
Chain of Epidermal growth factor receptor (P00533 whole entry): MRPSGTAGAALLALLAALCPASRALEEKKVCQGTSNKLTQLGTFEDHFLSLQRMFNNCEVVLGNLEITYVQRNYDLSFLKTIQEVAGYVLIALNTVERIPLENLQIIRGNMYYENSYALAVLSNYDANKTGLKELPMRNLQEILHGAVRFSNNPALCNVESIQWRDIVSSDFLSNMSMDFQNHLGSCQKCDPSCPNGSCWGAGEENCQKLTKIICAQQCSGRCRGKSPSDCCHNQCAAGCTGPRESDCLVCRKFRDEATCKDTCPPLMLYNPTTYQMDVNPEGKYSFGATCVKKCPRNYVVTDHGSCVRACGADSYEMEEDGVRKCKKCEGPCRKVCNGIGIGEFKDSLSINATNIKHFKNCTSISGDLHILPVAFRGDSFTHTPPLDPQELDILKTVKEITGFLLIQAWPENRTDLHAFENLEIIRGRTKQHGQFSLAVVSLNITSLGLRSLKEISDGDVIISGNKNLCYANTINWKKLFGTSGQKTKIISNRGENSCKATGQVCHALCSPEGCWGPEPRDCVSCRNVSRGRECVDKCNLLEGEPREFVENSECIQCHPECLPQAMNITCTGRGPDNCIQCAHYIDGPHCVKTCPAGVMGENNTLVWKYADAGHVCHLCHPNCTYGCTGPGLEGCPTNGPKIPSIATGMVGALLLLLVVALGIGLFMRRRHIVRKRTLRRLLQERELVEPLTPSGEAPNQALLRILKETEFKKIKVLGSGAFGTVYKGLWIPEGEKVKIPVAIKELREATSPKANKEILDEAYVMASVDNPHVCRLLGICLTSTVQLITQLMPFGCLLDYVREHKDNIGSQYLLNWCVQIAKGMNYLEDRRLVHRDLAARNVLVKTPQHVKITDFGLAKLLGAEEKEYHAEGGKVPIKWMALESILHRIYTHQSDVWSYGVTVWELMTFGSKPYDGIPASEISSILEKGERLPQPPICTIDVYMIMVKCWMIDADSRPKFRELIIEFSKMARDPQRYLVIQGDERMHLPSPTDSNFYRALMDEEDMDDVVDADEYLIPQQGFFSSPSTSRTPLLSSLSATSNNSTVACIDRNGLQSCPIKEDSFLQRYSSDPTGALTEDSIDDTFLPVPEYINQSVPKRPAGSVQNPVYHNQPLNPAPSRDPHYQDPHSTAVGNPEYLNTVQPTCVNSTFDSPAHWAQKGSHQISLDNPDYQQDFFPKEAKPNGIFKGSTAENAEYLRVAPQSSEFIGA
Chain of Insulin-like growth factor 1 receptor (P08069 31-736 limits assumed): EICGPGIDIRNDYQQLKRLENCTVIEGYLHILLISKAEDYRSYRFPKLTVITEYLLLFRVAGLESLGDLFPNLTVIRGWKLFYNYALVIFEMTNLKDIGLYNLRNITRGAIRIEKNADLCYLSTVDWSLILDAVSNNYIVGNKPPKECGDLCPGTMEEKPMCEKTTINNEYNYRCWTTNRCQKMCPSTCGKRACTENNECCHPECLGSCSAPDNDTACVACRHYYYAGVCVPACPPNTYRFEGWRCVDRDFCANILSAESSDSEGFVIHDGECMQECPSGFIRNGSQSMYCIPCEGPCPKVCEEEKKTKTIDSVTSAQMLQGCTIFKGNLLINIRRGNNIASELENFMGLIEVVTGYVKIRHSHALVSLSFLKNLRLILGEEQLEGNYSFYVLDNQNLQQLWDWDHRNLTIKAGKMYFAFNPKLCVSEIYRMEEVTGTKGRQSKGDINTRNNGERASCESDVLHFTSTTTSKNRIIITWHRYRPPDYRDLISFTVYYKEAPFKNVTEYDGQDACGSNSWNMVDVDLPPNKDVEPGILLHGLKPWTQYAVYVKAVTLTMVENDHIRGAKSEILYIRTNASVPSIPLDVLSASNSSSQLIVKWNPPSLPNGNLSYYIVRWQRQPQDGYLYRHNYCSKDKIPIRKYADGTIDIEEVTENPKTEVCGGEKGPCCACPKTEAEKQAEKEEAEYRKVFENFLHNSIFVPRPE
Chain of Insulin-like growth factor 1 receptor (P08069 741-1367 limits assumed): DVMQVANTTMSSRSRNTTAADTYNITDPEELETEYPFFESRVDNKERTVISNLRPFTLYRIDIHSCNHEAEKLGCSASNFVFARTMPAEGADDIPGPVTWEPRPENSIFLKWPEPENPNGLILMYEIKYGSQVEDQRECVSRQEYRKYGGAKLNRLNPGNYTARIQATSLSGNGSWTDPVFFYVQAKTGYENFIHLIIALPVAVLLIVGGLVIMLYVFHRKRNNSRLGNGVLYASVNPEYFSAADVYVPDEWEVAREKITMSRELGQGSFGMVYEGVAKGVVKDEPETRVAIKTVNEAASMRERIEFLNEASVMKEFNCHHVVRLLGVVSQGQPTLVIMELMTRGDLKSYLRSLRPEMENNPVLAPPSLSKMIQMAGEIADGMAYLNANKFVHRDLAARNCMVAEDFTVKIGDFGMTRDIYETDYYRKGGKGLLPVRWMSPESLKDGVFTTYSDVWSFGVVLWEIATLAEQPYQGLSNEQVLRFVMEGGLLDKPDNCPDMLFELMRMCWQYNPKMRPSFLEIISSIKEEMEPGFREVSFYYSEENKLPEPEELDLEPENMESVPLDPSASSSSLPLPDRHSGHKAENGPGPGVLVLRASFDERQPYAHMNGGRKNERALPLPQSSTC
Chain of Proto-oncogene tyrosine-protein kinase Src (P12931 2-536 limits assumed): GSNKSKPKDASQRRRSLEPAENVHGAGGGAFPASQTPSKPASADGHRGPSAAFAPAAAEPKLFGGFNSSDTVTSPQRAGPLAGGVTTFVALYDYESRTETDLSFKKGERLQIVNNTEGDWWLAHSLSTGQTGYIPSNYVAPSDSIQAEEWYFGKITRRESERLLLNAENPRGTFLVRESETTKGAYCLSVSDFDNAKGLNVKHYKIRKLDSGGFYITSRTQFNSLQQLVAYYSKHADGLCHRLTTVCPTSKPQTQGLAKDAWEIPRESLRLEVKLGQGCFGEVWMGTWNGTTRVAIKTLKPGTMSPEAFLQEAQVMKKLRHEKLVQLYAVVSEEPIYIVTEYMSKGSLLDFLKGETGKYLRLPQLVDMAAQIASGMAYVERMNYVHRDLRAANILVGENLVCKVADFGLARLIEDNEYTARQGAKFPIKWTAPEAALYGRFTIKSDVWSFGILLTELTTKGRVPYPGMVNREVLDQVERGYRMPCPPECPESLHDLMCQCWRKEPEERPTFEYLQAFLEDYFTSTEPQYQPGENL

| Compound | IC50 (A549) [µM] | IC50 (HT-29 [1]) [µM] | also measured |
| --- | --- | --- | --- |
| COc1cc2c(Oc3ccc(C4SCC(=O)N4NC(=O)Nc4ccc(F)cc4F)cc3F)ccnc2cc1OCCCN1CCOCC1 (stereo unspecified) | 2.1 | 0.86 | – |
| COc1cc2c(Oc3ccc(C4SCC(=O)N4NC(=O)Nc4cccc(Cl)c4)cc3)ccnc2cc1OCCCN1CCOCC1 (stereo unspecified) | 8.9 | 7.7 | – |
| COc1cc2c(Oc3ccc(C4SCC(=O)N4NC(=O)Nc4ccc(F)cc4F)c(Cl)c3)ccnc2cc1OCCCN1CCOCC1 (stereo unspecified) | 6.1 | 2.8 | – |
| COc1cc2c(Oc3ccc(C4SCC(=O)N4NC(=O)Nc4ccc(F)cc4F)c(F)c3)ccnc2cc1OCCCN1CCOCC1 (stereo unspecified) | 4.6 | 1.3 | – |
| COc1cc2c(Oc3ccc(C4SCC(=O)N4NC(=O)Nc4ccc(F)cc4F)cc3Cl)ccnc2cc1OCCCN1CCOCC1 (stereo unspecified) | 6.7 | 2.4 | – |
| COc1cc2c(Oc3ccc(C4SCC(=O)N4NC(=O)Nc4ccccc4Cl)cc3)ccnc2cc1OCCCN1CCOCC1 (stereo unspecified) | 8.5 | 6.5 | – |
| COc1cc2c(Oc3ccc(C4SCC(=O)N4NC(=O)Nc4ccc(F)cc4)cc3)ccnc2cc1OCCCN1CCOCC1 (stereo unspecified) | 4.9 | 4.8 | – |
| COc1cc2c(Oc3ccc(C4SCC(=O)N4NC(=O)Nc4ccc(F)cc4F)cc3)ccnc2cc1OCCCN1CCOCC1 (stereo unspecified) | 6 | 2.3 | – |
| COc1cc2c(Oc3ccc(C4SCC(=O)N4NC(=O)Nc4ccc(F)cc4F)cc3F)ccnc2cc1OCCCN1CCN(C)CC1 (stereo unspecified) | 0.65 | 0.11 | Activity (HT-29 [2]): Dose-dependent effect; IC50 [3]: 0.0086 µM; Activity (HT-29 [4]): Active; Activity (HT-29 [5]): Dose-dependent effect; Activity (HT-29 [6]): Active; IC50 [7]: 0.0187 µM; Activity (HT-29 [8]): Active; Activity (HT-29 [9]): Active; Ratio (HT-29 [10]): >10; IC50 [11]: 6.66 µM; Activity (HT-29 [12]): 56.6%; Activity (HT-29 [13]): 65.5%; IC50 [14]: 0.4 µM; Activity (HT-29 [15]): 62%; Activity (HT-29 [16]): Active; Activity (HT-29 [17]): 69.4%; Activity (HT-29 [18]): Dose-dependent effect; IC50 [19]: 0.352 µM; IC50 [20]: 0.383 µM; Activity (HT-29 [21]): Dose-dependent effect |
| CCN1CCN(CCCOc2cc3nccc(Oc4ccc(C5SCC(=O)N5NC(=O)Nc5ccc(F)cc5F)cc4F)c3cc2OC)CC1 (stereo unspecified) | 1 | 0.32 | – |
| COc1cc2c(Oc3ccc(C4SCC(=O)N4NC(=O)Nc4ccccc4F)cc3)ccnc2cc1OCCCN1CCOCC1 (stereo unspecified) | 7 | – | – |
| COc1cc2nccc(Oc3ccc(NC(=O)C4(C(=O)Nc5ccc(F)cc5)CC4)cc3)c2cc1OC [CABOZANTINIB] | 8.5 | – | Activity (HT-29 [22]): Active; Activity (HT-29 [6]): Active; Activity (HT-29 [23]): Active; Activity (HT-29 [16]): Active |
| COc1cc2c(Oc3ccc(C4SCC(=O)N4NC(=O)Nc4ccccc4)cc3)ccnc2cc1OCCCN1CCOCC1 (stereo unspecified) | 8.7 | 5.2 | – |
| COc1cc2c(Oc3ccc(C4SCC(=O)N4NC(=O)Nc4cc(F)cc(F)c4)cc3)ccnc2cc1OCCCN1CCOCC1 (stereo unspecified) | 6.1 | 4.9 | – |
| COc1cc2c(Oc3ccc(C4SCC(=O)N4NC(=O)Nc4ccc(Cl)cc4)cc3)ccnc2cc1OCCCN1CCOCC1 (stereo unspecified) | 6.7 | 6.6 | – |
| COc1cc2c(Oc3ccc(C4SCC(=O)N4NC(=O)Nc4ccc(F)c(F)c4F)cc3)ccnc2cc1OCCCN1CCOCC1 (stereo unspecified) | 5.5 | 4.4 | – |
| COc1cc2c(Oc3ccc(C4SCC(=O)N4NC(=O)Nc4ccc(F)cc4F)cc3F)ccnc2cc1OCCCN1CCCN(C)CC1 (stereo unspecified) | 0.71 | 0.18 | – |
